Test results as given in patent US8153795B2, “Substituted 1-oxa-3,8-diazaspiro[4.5]-decan-2-one-compounds and the use thereof for producing drugs” (Gruenenthal GmbH, priority 2005, dated 2012).

Key:
[1] = biological target: T1, human μ opioid receptor (Homo sapiens, UniProt P35372); experiment: affinity for the human μ opioid receptor, displacement of [3H]-naloxone, CHO-K1 membrane preparation; details: percentage inhibition of specific binding of [3H]-naloxone
T1 construct: purchased NEN, Zaventem, Belgium RB-HOM; host or cells: CHO-K1 cells (recombinant expression, membrane preparation)
Description: Receptor affinity for the human p opioid receptor is determined in a homogeneous batch in microtitre plates. To this end, dilution series of the particular substituted 1-oxa-3,8-diazaspiro[4.5]-decan-2-one compounds to be tested were incubated at room temperature for 90 minutes in a total volume of 250 μl with a receptor membrane preparation (15-40 μg of protein per 250 μl of incubation batch) of CHO-K1 cells, which express the human p opioid receptor (RB-HOM receptor membrane preparation from NEN, Zaventem, Belgium) in the presence of 1 nmol/l of the radioactive ligand [^3H]-naloxone (NET719, from NEN, Zaventem, Belgium) and of 1 mg of WGA-SPA beads (wheat germ agglutinin SPA beads from Amersham/Pharmacia, Freiburg, Germany). The incubation buffer used is 50 mmol/l tris-HCl supplemented with 0.05 wt. % of sodium azide and 0.06 wt. % of bovine serum albumin. Nonspecific binding is determined by additionally adding 25 μmol/l of naloxone. Once the ninety minute incubation time had elapsed, the microtitre plates were centrifuged off for 20 minutes at 1000 g and the radioactivity measured in a β counter (Microbeta-Trilux, from PerkinElmer Wallac, Freiburg, Germany). The percentage displacement of the radioactive ligand from its binding to the human p opioid receptor is determined at a concentration of the substances to be tested of 1 μmol/l and stated as percentage inhibition of specific binding.

[2] = biological target: T2, 5-HT transporter (Rattus norvegicus, UniProt P31652); experiment: 5-HT uptake inhibition in rat brain synaptosomes (medulla and pons), [3H]-5-HT; type: biochemical
T2 construct: from tissue; host or cells: rat brain synaptosomes (P2 fraction) from medulla and pons
Summary of the method: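 Freshly isolated P2 synaptosomes taken from rat hypothalamus (NA) or medulla/pons (5-HT) were incubated at room temperature under O2 with [3H]-NA for 7.5 min or [3H]-5-HT for 5 min. Uptake was measured as filter-retained radioactivity by scintillation counting.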

[3] = biological target: T3, NA transporter (Rattus norvegicus, UniProt Q63380); experiment: noradrenalin uptake inhibition in rat brain synaptosomes (hypothalamus), [3H]-NA; type: biochemical
T3 construct: from tissue; host or cells: rat brain synaptosomes (P2 fraction) from hypothalamus
From the text: a) Method for Determining Noradrenalin and 5-HT Uptake Inhibition:
Synaptosomes from rat brain regions are freshly isolated for in vitro studies, as described in the publication “The isolation of nerve endings from brain” by E. G. Gray and V. P. Whittaker, J. Anatomy 96, pages 79-88, 1962. The corresponding literature description is hereby introduced as a reference and is deemed to be part of the disclosure.
The tissue (hypothalamus for the determination of noradrenalin uptake inhibition and medulla and pons for the determination of 5-HT uptake inhibition) is homogenised in ice-cooled 0.32 M sucrose (100 mg of tissue/1 mL) in a glass homogeniser with Teflon pestle using five complete up and down strokes at 840 revolutions/minute.
The homogenate is centrifuged at 4° C. for 10 minutes at 1000 g. After subsequent centrifugation at 17000 g for 55 minutes, the synaptosomes (P2 fraction) are obtained, which are resuspended in 0.32 M […] (0.5 mL/100 mg of original weight).
The particular uptake is measured in a 96-well microtitre plate. The volume is 250 μl and the incubation proceeds at room temperature (approx. 20-25° C.) under an O2 atmosphere.
The incubation time is 7.5 minutes for [^3H]-NA and 5 minutes for [^3H]-5-HT. The 96 samples are then filtered through a Unifilter GF/B® microtitre plate (Packard) and washed with 200 mL of incubated buffer using a “Brabdel MPXRI-96T Cell-Harvester”. The Unifilter GF/B plate is dried for 1 hour at 55° C. The plate is then sealed with a Back Seal® (Packard) and 35 μl of scintillation fluid are added per well (Ultima Gold®, Packard). After sealing with a top Seal® (Packard) and establishing an equilibrium (around 5 hours), radioactivity is determined in a “Trilux 1450 Microbeta” (Wallac).
The quantity of protein used in the above determination corresponds to the values known from the literature, as for example described in “Protein measurement with the folin phenol reagent”, Lowry et al., J. Biol. Chem., 193, 265-275, 1951.
A detailed description of the method may additionally be found in the literature, for example in M. Ch. Frink, H.-H. Hennies, W. Engelberger, M. Haurand and B. Wilffert (1996) Arzneim.-Forsch./Drug Res. 46 (III), 11, 1029-1036.

T3 sequence (Q63380 1-617): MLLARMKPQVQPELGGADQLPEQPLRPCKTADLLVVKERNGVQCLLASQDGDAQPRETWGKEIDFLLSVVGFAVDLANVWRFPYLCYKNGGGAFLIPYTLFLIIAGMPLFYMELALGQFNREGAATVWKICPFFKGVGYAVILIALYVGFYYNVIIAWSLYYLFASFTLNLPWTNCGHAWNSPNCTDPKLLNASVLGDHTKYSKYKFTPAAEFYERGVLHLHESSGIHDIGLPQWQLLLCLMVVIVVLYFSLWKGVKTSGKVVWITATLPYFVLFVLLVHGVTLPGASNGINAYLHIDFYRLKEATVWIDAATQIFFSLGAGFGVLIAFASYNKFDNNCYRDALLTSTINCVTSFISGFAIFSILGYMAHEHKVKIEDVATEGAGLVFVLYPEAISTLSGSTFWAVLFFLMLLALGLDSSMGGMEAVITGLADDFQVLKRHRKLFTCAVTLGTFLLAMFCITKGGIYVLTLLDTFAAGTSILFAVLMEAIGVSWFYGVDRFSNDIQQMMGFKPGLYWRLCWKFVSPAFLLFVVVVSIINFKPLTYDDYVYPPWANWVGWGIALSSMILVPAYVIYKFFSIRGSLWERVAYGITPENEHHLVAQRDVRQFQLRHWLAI
T1 sequence (P35372 whole entry): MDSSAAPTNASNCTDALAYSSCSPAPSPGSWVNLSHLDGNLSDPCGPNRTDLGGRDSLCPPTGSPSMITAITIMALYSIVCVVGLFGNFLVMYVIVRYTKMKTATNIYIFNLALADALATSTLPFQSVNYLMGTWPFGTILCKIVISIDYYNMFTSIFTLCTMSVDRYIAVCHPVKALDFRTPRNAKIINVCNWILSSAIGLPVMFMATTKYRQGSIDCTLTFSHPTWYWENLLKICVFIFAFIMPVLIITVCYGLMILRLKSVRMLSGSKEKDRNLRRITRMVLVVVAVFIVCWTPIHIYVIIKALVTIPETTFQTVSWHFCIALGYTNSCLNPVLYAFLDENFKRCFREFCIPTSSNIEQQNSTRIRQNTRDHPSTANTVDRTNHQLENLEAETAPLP
T2 sequence (P31652 whole entry): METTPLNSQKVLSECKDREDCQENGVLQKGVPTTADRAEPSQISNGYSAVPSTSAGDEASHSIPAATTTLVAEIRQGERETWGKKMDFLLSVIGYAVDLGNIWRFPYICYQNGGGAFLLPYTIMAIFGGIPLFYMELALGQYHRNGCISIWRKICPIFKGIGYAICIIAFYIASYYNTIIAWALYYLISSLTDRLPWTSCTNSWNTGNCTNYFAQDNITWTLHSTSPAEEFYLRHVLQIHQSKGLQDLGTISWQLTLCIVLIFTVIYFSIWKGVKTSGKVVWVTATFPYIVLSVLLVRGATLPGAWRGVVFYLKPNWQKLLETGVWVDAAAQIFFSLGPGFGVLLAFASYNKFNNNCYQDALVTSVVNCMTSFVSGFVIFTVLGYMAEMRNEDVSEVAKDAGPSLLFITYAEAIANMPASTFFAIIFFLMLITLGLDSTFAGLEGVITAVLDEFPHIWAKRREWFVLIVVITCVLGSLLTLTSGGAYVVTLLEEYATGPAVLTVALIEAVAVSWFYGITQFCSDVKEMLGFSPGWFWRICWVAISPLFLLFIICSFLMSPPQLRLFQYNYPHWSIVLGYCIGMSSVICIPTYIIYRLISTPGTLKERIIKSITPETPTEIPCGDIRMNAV

Row | Structure (SMILES) | inhibition at 1 µM [1] [%] | inhibition at 10 µM [2] [%] | inhibition at 10 µM [3] [%]
1 | O=C1OC2(CCN(S(=O)(=O)Cc3cccc(Cl)c3)CC2)CN1Cc1ccccc1-c1ccccc1 [Example 149, 3-biphenyl-2-ylmethyl-8-(3-chlorobenzylsulfonyl)-1-oxa-3,8-diazaspiro[4.5]decan-2-one] | 61 | – | –
2 | Cc1ccc(CN2CC3(CCN(C(=O)CC(C)(C)CC(=O)O)CC3)OC2=O)cc1 [Example 68, 3,3-dimethyl-5-[3-(4-methylbenzyl)-2-oxo-1-oxa-3,8-diazaspiro[4.5]dec-8-yl]-5-oxopentanoic acid] | 46 | – | –
3 | O=C(O)COCC(=O)N1CCC2(CC1)CN(Cc1ccc(F)c(F)c1)C(=O)O2 [Example 64, {2-[3-(3,4-difluorobenzyl)-2-oxo-1-oxa-3,8-diazaspiro[4.5]dec-8-yl]-2-oxoethoxy}acetic acid] | 48 | – | –
4 | N#Cc1ccc(CN2CC3(CCN(C(=O)C45CC6CC(CC(C6)C4)C5)CC3)OC2=O)cc1 [Example 98, 4-[8-(adamantane-1-carbonyl)-2-oxo-1-oxa-3,8-diazaspiro[4.5]dec-3-ylmethyl]benzonitrile] | 75 | – | –
5 | Cc1cc(C)cc(CN2CC3(CCN(C(=O)c4cccc(N(C)C)c4)CC3)OC2=O)c1 [Example 95, 8-(3-dimethylaminobenzoyl)-3-(3,5-dimethylbenzyl)-1-oxa-3,8-diazaspiro[4.5]decan-2-one] | 75 | – | –
6 | CC(C)(CC(=O)O)C(=O)N1CCC2(CC1)CN(Cc1ccc(F)c(F)c1)C(=O)O2 [Example 65, 4-[3-(3,4-difluorobenzyl)-2-oxo-1-oxa-3,8-diazaspiro[4.5]dec-8-yl]-3,3-dimethyl-4-oxobutanoic acid] | 56 | 55 | –
7 | O=C1OC2(CCN(C(=O)c3ccc(Br)cc3)CC2)CN1Cc1ccc(F)cc1 [Example 97, 8-(4-bromobenzoyl)-3-(4-fluorobenzyl)-1-oxa-3,8-diazaspiro[4.5]decan-2-one] | 67 | – | –
8 | CCOc1ccc(C(=O)N2CCC3(CC2)CN(Cc2ccc(C)cc2)C(=O)O3)cc1 [Example 92, 8-(4-ethoxybenzoyl)-3-(4-methylbenzyl)-1-oxa-3,8-diazaspiro[4.5]decan-2-one] | 70 | 67 | 73
9 | CC(=O)Nc1ccc(C(=O)N2CCC3(CC2)CN(Cc2ccc(F)c(F)c2)C(=O)O3)cc1 [Example 96, N-{4-[3-(3,4-difluorobenzyl)-2-oxo-1-oxa-3,8-diazaspiro[4.5]decane-8-carbonyl]phenyl}acetamide] | 78 | – | –
10 | COC(=O)CC(=O)N1CCC2(CC1)CN(Cc1ccc(C#N)cc1)C(=O)O2 [Example 93, 3-[3-(4-cyanobenzyl)-2-oxo-1-oxa-3,8-diazaspiro[4.5]dec-8-yl]-3-oxopropionic acid methyl ester] | 65 | – | –
11 | CC(CC(=O)O)CC(=O)N1CCC2(CC1)CN(Cc1ccccc1F)C(=O)O2 (stereo not shown) [Example 67, 5-[3-(2-fluorobenzyl)-2-oxo-1-oxa-3,8-diazaspiro[4.5]dec-8-yl]-3-methyl-5-oxopentanoic acid] | 41 | – | –
12 | O=C1OC2(CCN(C(=O)c3ccc(Cl)cc3)CC2)CN1Cc1cccc(Br)c1 [Example 100, 3-(3-bromobenzyl)-8-(4-chlorobenzoyl)-1-oxa-3,8-diazaspiro[4.5]decan-2-one] | 64 | – | –
13 | Cc1csc(NC(=O)CN2CCC3(CC2)CN(Cc2ccc(F)c(F)c2)C(=O)O3)c1C#N [Example 80, N-(3-cyano-4-methylthiophen-2-yl)-2-[3-(3,4-difluorobenzyl)-2-oxo-1-oxa-3,8-diazaspiro[4.5]dec-8-yl]acetamide] | – | 47 | 45
14 | N#Cc1ccccc1CN1CC2(CCN(C(=O)c3ccc(F)cc3F)CC2)OC1=O [Example 94, 2-[8-(2,4-difluorobenzoyl)-2-oxo-1-oxa-3,8-diazaspiro[4.5]dec-3-ylmethyl]benzonitrile] | 62 | – | –
15 | O=C(O)COCC(=O)N1CCC2(CC1)CN(Cc1ccc(C(F)(F)F)cc1)C(=O)O2 [Example 70, {2-oxo-2-[2-oxo-3-(4-trifluoromethylbenzyl)-1-oxa-3,8-diazaspiro[4.5]dec-8-yl]ethoxy}acetic acid] | 42 | – | –
16 | O=C(NCc1ccc(Cl)c(Cl)c1)N1CCC2(CC1)CN(Cc1ccc3ccccc3c1)C(=O)O2 [Example 44, 3-naphthalen-2-ylmethyl-2-oxo-1-oxa-3,8-diazaspiro[4.5]decane-8-carboxylic acid 3,4-dichlorobenzylamide] | – | 57 | 61
17 | CC(CC(=O)O)CC(=O)N1CCC2(CC1)CN(Cc1ccc(F)c(F)c1)C(=O)O2 (stereo not shown) [Example 69, 5-[3-(3,4-difluorobenzyl)-2-oxo-1-oxa-3,8-diazaspiro[4.5]dec-8-yl]-3-methyl-5-oxopentanoic acid] | 50 | – | –
18 | N#Cc1cccc(CN2CC3(CCN(C(=S)NCC4CCCCC4)CC3)OC2=O)c1 [Example 19, 3-(3-cyanobenzyl)-2-oxo-1-oxa-3,8-diazaspiro[4.5]decane-8-carbothioic acid cyclohexylmethylamide] | – | 69 | 48
19 | N#Cc1cccc(NC(=O)N2CCC3(CC2)CN(Cc2ccccc2)C(=O)O3)c1 [Example 33, 3-benzyl-2-oxo-1-oxa-3,8-diazaspiro[4.5]decane-8-carboxylic acid (3-cyanophenyl)amide] | – | 59 | 93
20 | CC(=O)c1cccc(NC(=S)N2CCC3(CC2)CN(Cc2cc(C)cc(C)c2)C(=O)O3)c1 [Example 7, 3-(3,5-dimethylbenzyl)-2-oxo-1-oxa-3,8-diazaspiro[4.5]decane-8-carbothioic acid (3-acetylphenyl)amide] | – | 55 | 50
